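GI50: concentration for 50% inhibition of growth. TGI is the concentration that stops growth completely.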
What was measured:
Experiment in all cases: NCI tumour cell line growth inhibition, 384-well format
ACHN renal = system: ACHN renal
OVCAR-4 ovarian = system: OVCAR-4 ovarian
COLO 205 colon = system: COLO 205 colon
RXF 393 renal = system: RXF 393 renal
SK-MEL-2 melanoma = system: SK-MEL-2 melanoma
DU-145 prostate = system: DU-145 prostate
NCI-H460 NSCLC = system: NCI-H460 NSCLC
UACC-257 melanoma = system: UACC-257 melanoma
RPMI-8226 leukemia = system: RPMI-8226 leukemia
NCI-H23 lung = system: NCI-H23 lung
SF-268 CNS = system: SF-268 CNS
OVCAR-3 ovarian = system: OVCAR-3 ovarian
HL-60(TB) leukemia = system: HL-60(TB) leukemia
OVCAR-8 ovarian = system: OVCAR-8 ovarian
NCI/ADR-RES ovarian = system: NCI/ADR-RES ovarian
BT-549 breast = system: BT-549 breast
TK-10 renal = system: TK-10 renal
IGROV1 ovarian = system: IGROV1 ovarian
MALME-3M melanoma = system: MALME-3M melanoma
K-562 leukemia = system: K-562 leukemia
LOX IMVI melanoma = system: LOX IMVI melanoma
PC-3 prostate = system: PC-3 prostate
UO-31 renal = system: UO-31 renal
HT29 colon = system: HT29 colon
HCT-116 colon = system: HCT-116 colon
MDA-MB-435 melanoma = system: MDA-MB-435 melanoma
HOP-92 NSCLC = system: HOP-92 NSCLC
EKVX NSCLC = system: EKVX NSCLC
SN12C renal = system: SN12C renal
NCI-H522 lung = system: NCI-H522 lung
MOLT-4 leukemia = system: MOLT-4 leukemia
KM12 colon = system: KM12 colon
A498 renal = system: A498 renal
SK-MEL-5 melanoma = system: SK-MEL-5 melanoma
MDA-MB-468 breast = system: MDA-MB-468 breast
MDA-MB-231 breast = system: MDA-MB-231 breast
SF-295 CNS = system: SF-295 CNS
HS 578T breast = system: HS 578T breast
CCRF-CEM leukemia = system: CCRF-CEM leukemia
NCI-H322M lung = system: NCI-H322M lung
HOP-62 NSCLC = system: HOP-62 NSCLC
SF-539 CNS = system: SF-539 CNS
M14 melanoma = system: M14 melanoma
CAKI-1 renal = system: CAKI-1 renal
SNB-75 CNS = system: SNB-75 CNS
U251 glioblastoma = system: U251 glioblastoma
SK-OV-3 ovarian = system: SK-OV-3 ovarian
SW-620 colon = system: SW-620 colon
MCF7 breast = system: MCF7 breast
SK-MEL-28 melanoma = system: SK-MEL-28 melanoma
HCT-15 colon = system: HCT-15 colon
786-0 renal = system: 786-0 renal
T-47D breast = system: T-47D breast
OVCAR-5 ovarian = system: OVCAR-5 ovarian
UACC-62 melanoma = system: UACC-62 melanoma
HCC-2998 colon = system: HCC-2998 colon
A549 NSCLC = system: A549 NSCLC
SNB-19 CNS = system: SNB-19 CNS
NCI-H226 lung = system: NCI-H226 lung

With `C=CC(=O)N1CCC(Oc2cc3c(Nc4ccc(Cl)c(Cl)c4F)ncnc3cc2OC)CC1` the GI50 (ACHN renal) was < 10 nM, the TGI (ACHN renal) was 11200 nM and the GI50 (OVCAR-4 ovarian) was 363 nM. The TGI (OVCAR-4 ovarian) was 5420 nM, the GI50 (COLO 205 colon) was 4340 nM and the TGI (COLO 205 colon) was 18400 nM. It also gave a GI50 (RXF 393 renal) of 230 nM, a TGI (RXF 393 renal) of 1310 nM and a GI50 (SK-MEL-2 melanoma) of 1750 nM. For the same compound, the TGI (SK-MEL-2 melanoma) was 4660 nM, the GI50 (DU-145 prostate) was 879 nM and the TGI (DU-145 prostate) was 14600 nM. The GI50 (NCI-H460 NSCLC) was 2870 nM, the TGI (NCI-H460 NSCLC) was 13700 nM and the GI50 (UACC-257 melanoma) was 3330 nM. It also gave a TGI (UACC-257 melanoma) of 13600 nM, a GI50 (RPMI-8226 leukemia) of 1250 nM and a TGI (RPMI-8226 leukemia) of 3260 nM. It also gave a GI50 (NCI-H23 lung) of 1780 nM, a TGI (NCI-H23 lung) of 6130 nM and a GI50 (SF-268 CNS) of 1190 nM. It also gave a TGI (SF-268 CNS) of 5580 nM, a GI50 (OVCAR-3 ovarian) of 244 nM and a TGI (OVCAR-3 ovarian) of 3210 nM. The GI50 (HL-60(TB) leukemia) was 1940 nM, the TGI (HL-60(TB) leukemia) was 3490 nM and the GI50 (OVCAR-8 ovarian) was 1950 nM. It also gave a TGI (OVCAR-8 ovarian) of 12200 nM, a GI50 (NCI/ADR-RES ovarian) of 1100 nM and a TGI (NCI/ADR-RES ovarian) of 3210 nM. The GI50 (BT-549 breast) was 1110 nM, the TGI (BT-549 breast) was 3990 nM and the GI50 (TK-10 renal) was < 10 nM. For the same compound, the TGI (TK-10 renal) was 738 nM, the GI50 (IGROV1 ovarian) was < 10 nM and the TGI (IGROV1 ovarian) was 817 nM. It also gave a GI50 (MALME-3M melanoma) of 2520 nM, a TGI (MALME-3M melanoma) of 11200 nM and a GI50 (K-562 leukemia) of 1270 nM. For the same compound, the TGI (K-562 leukemia) was 2880 nM, the GI50 (LOX IMVI melanoma) was 1620 nM and the TGI (LOX IMVI melanoma) was 3470 nM. It also gave a GI50 (PC-3 prostate) of 1960 nM, a TGI (PC-3 prostate) of 10400 nM and a GI50 (UO-31 renal) of 137 nM. It also gave a TGI (UO-31 renal) of 2080 nM, a GI50 (HT29 colon) of 2420 nM and a TGI (HT29 colon) of 11900 nM. It also gave a GI50 (HCT-116 colon) of 3730 nM, a TGI (HCT-116 colon) of 15200 nM and a GI50 (MDA-MB-435 melanoma) of 2640 nM. For the same compound, the TGI (MDA-MB-435 melanoma) was 10900 nM, the GI50 (HOP-92 NSCLC) was 1390 nM and the TGI (HOP-92 NSCLC) was 4020 nM. The GI50 (EKVX NSCLC) was < 10 nM, the TGI (EKVX NSCLC) was 2140 nM and the GI50 (SN12C renal) was 353 nM. For the same compound, the TGI (SN12C renal) was 6440 nM, the GI50 (NCI-H522 lung) was < 10 nM and the TGI (NCI-H522 lung) was 16.2 nM. It also gave a GI50 (MOLT-4 leukemia) of 430 nM, a TGI (MOLT-4 leukemia) of 1880 nM and a GI50 (KM12 colon) of 3070 nM. For the same compound, the TGI (KM12 colon) was 12700 nM, the GI50 (A498 renal) was 137 nM and the TGI (A498 renal) was 1950 nM. For the same compound, the GI50 (SK-MEL-5 melanoma) was 2980 nM, the TGI (SK-MEL-5 melanoma) was 13300 nM and the GI50 (MDA-MB-468 breast) was < 10 nM. For the same compound, the TGI (MDA-MB-468 breast) was < 10 nM, the GI50 (MDA-MB-231 breast) was 2100 nM and the TGI (MDA-MB-231 breast) was 14000 nM. The GI50 (SF-295 CNS) was 4150 nM, the TGI (SF-295 CNS) was 14900 nM and the GI50 (HS 578T breast) was 1040 nM. It also gave a TGI (HS 578T breast) of 2460 nM, a GI50 (CCRF-CEM leukemia) of 1260 nM and a TGI (CCRF-CEM leukemia) of 2740 nM. The GI50 (NCI-H322M lung) was < 10 nM, the TGI (NCI-H322M lung) was 4150 nM and the GI50 (HOP-62 NSCLC) was 2270 nM. The TGI (HOP-62 NSCLC) was 8530 nM, the GI50 (SF-539 CNS) was 1360 nM and the TGI (SF-539 CNS) was 3560 nM. It also gave a GI50 (M14 melanoma) of 3010 nM, a TGI (M14 melanoma) of 15400 nM and a GI50 (CAKI-1 renal) of 198 nM. For the same compound, the TGI (CAKI-1 renal) was 1700 nM, the GI50 (SNB-75 CNS) was 291 nM and the TGI (SNB-75 CNS) was 2130 nM. For the same compound, the GI50 (U251 glioblastoma) was 3520 nM, the TGI (U251 glioblastoma) was 15700 nM and the GI50 (SK-OV-3 ovarian) was < 10 nM. For the same compound, the TGI (SK-OV-3 ovarian) was 1520 nM, the GI50 (SW-620 colon) was 4420 nM and the TGI (SW-620 colon) was 16600 nM. It also gave a GI50 (MCF7 breast) of 690 nM, a TGI (MCF7 breast) of 14100 nM and a GI50 (SK-MEL-28 melanoma) of 14000 nM. The TGI (SK-MEL-28 melanoma) was 27100 nM, the GI50 (HCT-15 colon) was 2380 nM and the TGI (HCT-15 colon) was 12700 nM. The GI50 ([…]-0 renal) was 1310 nM, the TGI (786-0 renal) was 4740 nM and the GI50 (T-47D breast) was 17.3 nM. It also gave a TGI (T-47D breast) of 7890 nM, a GI50 (OVCAR-5 ovarian) of 1230 nM and a TGI (OVCAR-5 ovarian) of 11800 nM. The GI50 (UACC-62 melanoma) was 2440 nM, the TGI (UACC-62 melanoma) was 11600 nM and the GI50 (HCC-2998 colon) was 1620 nM. The TGI (HCC-2998 colon) was 7470 nM, the GI50 (A549 NSCLC) was 1240 nM and the TGI (A549 NSCLC) was 12000 nM. It also gave a GI50 (SNB-19 CNS) of 2920 nM, a TGI (SNB-19 CNS) of 14400 nM and a GI50 (NCI-H226 lung) of 813 nM. The TGI (NCI-H226 lung) was 13200 nM.

Source: PubChem BioAssay (NCI)
